Reference: PubChem BioAssay AID248 (DTP/NCI, 2004)
“And” between values parts separate entries of the source, which are not always exact repeats. Equal entries are not always repeated. Toxic doses and inconclusive results are not listed. No stated cut-off is given here; in the data, active means T/C of 150% or more; inactive means T/C below 125%.

Tested on: L1210 leukemia ip in BDF1 mice, survival T/C
Assay: NCI In Vivo Anticancer Drug Screen. Data for tumor model L1210 Leukemia (intraperitoneal) in B6D2F1 (BDF1) mice
Conditions: endpoint: mean survival time, higher = longer survival
Procedure, shortened: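 Ratio derived from survival: compound-dosed mice over vehicle-dosed mice, all bearing a transplantable tumor.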

[1] = dose: 5.0 mg/kg/injection, schedule: Q01DX Z (ip), vehicle: saline
[2] = dose: 100.0 mg/kg/injection, schedule: Q04DX002 (ip), vehicle: Klucel (hydroxypropylcellulose) (HPC)
[3] = dose: 200.0 mg/kg/injection, schedule: Q04DX002 (ip), vehicle: Klucel (hydroxypropylcellulose) (HPC)
[4] = dose: 400.0 mg/kg/injection, schedule: Q04DX002 (ip), vehicle: Klucel (hydroxypropylcellulose) (HPC)
[5] = dose: 50.0 mg/kg/injection, schedule: Q01DX001 (ip), vehicle: saline
[6] = dose: 100.0 mg/kg/injection, schedule: Q01DX001 (ip), vehicle: saline
[7] = dose: 200.0 mg/kg/injection, schedule: Q01DX001 (ip), vehicle: saline
[8] = dose: 400.0 mg/kg/injection, schedule: Q01DX001 (ip), vehicle: saline
[9] = dose: 100.0 mg/kg/injection, schedule: Q01DX009 (ip), vehicle: Klucel (hydroxypropylcellulose) (HPC)
[10] = dose: 100.0 mg/kg/injection, schedule: Q04DX003 (ip), vehicle: Klucel (hydroxypropylcellulose) (HPC)
[11] = dose: 200.0 mg/kg/injection, schedule: Q01DX009 (ip), vehicle: Klucel (hydroxypropylcellulose) (HPC)
[12] = dose: 200.0 mg/kg/injection, schedule: Q04DX003 (ip), vehicle: Klucel (hydroxypropylcellulose) (HPC)
[13] = dose: 400.0 mg/kg/injection, schedule: Q01DX009 (ip), vehicle: Klucel (hydroxypropylcellulose) (HPC)
[14] = dose: 400.0 mg/kg/injection, schedule: Q04DX003 (ip), vehicle: Klucel (hydroxypropylcellulose) (HPC)
[15] = dose: 100.0 mg/kg/injection, schedule: Q01DX009 (ip), vehicle: saline with Tween-80
[16] = dose: 200.0 mg/kg/injection, schedule: Q01DX009 (ip), vehicle: saline with Tween-80
[17] = dose: 400.0 mg/kg/injection, schedule: Q01DX009 (ip), vehicle: saline with Tween-80

Measured: T/C

C=CCC(=O)OCC
inactive: dose: 222.0 mg/kg/injection, schedule: Q01DX Z (ip), vehicle: saline 94 % of control | dose: 333.0 mg/kg/injection, schedule: Q01DX Z (ip), vehicle: saline 108 % of control | dose: 500.0 mg/kg/injection, schedule: Q01DX Z (ip), vehicle: saline 94 % of control

CNC1CC(N)C(O)C(OC2OC(CO)C(O)C3OC4(OC(C(N)CO)C(O)C(O)C4O)OC23)C1O (stereo not drawn)
inactive: dose: 2.2 mg/kg/injection, schedule: Q01DX Z (ip), vehicle: saline 97 % of control | dose: 3.3 mg/kg/injection, schedule: Q01DX Z (ip), vehicle: saline 94 % of control | [1] 89 % of control | dose: 7.6 mg/kg/injection, schedule: Q01DX Z (ip), vehicle: saline 94 % of control

COC(=O)C(=Cc1ccccc1)C(=O)OC
inactive: [2] 95 % of control | [3] 95 % of control | [4] 92 % of control

Cc1ccnc(NC(=O)NC2CCCCC2)c1
inactive: [2] 96 % of control | [3] 101 % of control | [4] 96 % of control

CCOC(=O)CNc1cccc(C)c1C
inactive: [2] 100 % of control | [3] 102 % of control | [4] 100 % of control

O=[N+]([O-])c1ccc(/C(=C/c2ccccc2)[n+]2ccccc2)cc1
inactive: dose: 10.0 mg/kg/injection, schedule: Q01DX001 (ip), vehicle: saline 106 % of control | dose: 20.0 mg/kg/injection, schedule: Q01DX001 (ip), vehicle: saline 100 % of control | dose: 40.0 mg/kg/injection, schedule: Q01DX001 (ip), vehicle: saline 100 % of control

Nc1ccc([I+]c2ccccc2)cc1
inactive: [5] 101 % of control | [6] 103 % of control

CS(=O)C(Cl)C(O)c1ccccc1 (stereo not drawn)
inactive: dose: 100.0 mg/kg/injection, schedule: Q03DX002 (ip), vehicle: saline with Tween-80 117 % of control | dose: 400.0 mg/kg/injection, schedule: Q03DX002 (ip), vehicle: saline with Tween-80 110 % of control

CC(C)CNC(=O)Nc1ccc(Cl)c(Cl)c1
inactive: [6] 97 % of control | [7] 95 % of control | [8] 95 % of control

CCCCNC(=O)Nc1ccc(Cl)cc1C(=O)c1ccccc1
inactive: [2] 105 % of control | [3] 102 % of control | [4] 94 % of control

CCOC(=O)c1cc([N+](=O)[O-])oc1C
inactive: [9] 102 % of control | [10] 98 % of control | [11] 102 % of control | [12] 94 % of control | [13] 112 % of control | [14] 100 % of control

CCCCCCCCCCCCCCCCC[As](=O)(O)CCCCCCCCCCCCCCCCC
inactive: [5] 101 % of control | [6] 95 % of control | [7] 89 % of control | [8] 97 % of control

CC(C(=O)O)C1(O)CCCCC1 (stereo not drawn)
inactive: dose: 5.0 mg/kg/injection, schedule: Q04DX003 (ip), vehicle: saline with Tween-80 96 % of control | dose: 10.0 mg/kg/injection, schedule: Q04DX003 (ip), vehicle: saline with Tween-80 89 % of control | dose: 20.0 mg/kg/injection, schedule: Q04DX003 (ip), vehicle: saline with Tween-80 87 % of control

Cc1ccc(Cc2c(C=O)nc(N)[nH]c2=O)c2ccccc12
inactive: [2] 90 % of control | [3] 97 % of control

CC(=O)Nc1c(Cl)cc2c(c1Cl)Cc1cc(C#N)ccc1-2
inactive: dose: 100.0 mg/kg/injection, schedule: Q01DX001 (ip), vehicle: carboxymethylcellulose (CMC) 102 % of control | dose: 200.0 mg/kg/injection, schedule: Q01DX001 (ip), vehicle: carboxymethylcellulose (CMC) 102 % of control | dose: 400.0 mg/kg/injection, schedule: Q01DX001 (ip), vehicle: carboxymethylcellulose (CMC) 98 % of control

CC12CCC(O1)C1C[N+](C)(CCC#N)CC12 (stereo not drawn)
inactive: dose: 55.0 mg/kg/injection, schedule: Q01DX Z (ip), vehicle: saline 105 % of control | dose: 83.0 mg/kg/injection, schedule: Q01DX Z (ip), vehicle: saline 100 % of control | dose: 125.0 mg/kg/injection, schedule: Q01DX Z (ip), vehicle: saline 105 % of control

O=C(/C=N/O)Nc1cc(Cl)ccc1Cl
inactive: [15] 91 % of control | dose: 100.0 mg/kg/injection, schedule: Q04DX003 (ip), vehicle: saline with Tween-80 97 % of control | [16] 87 % of control | dose: 200.0 mg/kg/injection, schedule: Q04DX003 (ip), vehicle: saline with Tween-80 93 % of control | [17] 88 % of control | dose: 400.0 mg/kg/injection, schedule: Q04DX003 (ip), vehicle: saline with Tween-80 108 % of control

N#CC(CC(=O)OCc1ccccc1)NC(=O)OCc1ccccc1 (stereo not drawn)
inactive: [15] 92 % of control | [16] 89 % of control | [17] 97 % of control

CCOc1ccc(NC(=O)NCBr)cc1
inactive: dose: 12.5 mg/kg/injection, schedule: Q01DX009 (ip), vehicle: saline with Tween-80 106 % of control | dose: 25.0 mg/kg/injection, schedule: Q01DX009 (ip), vehicle: saline with Tween-80 95 % of control | dose: 50.0 mg/kg/injection, schedule: Q01DX009 (ip), vehicle: saline with Tween-80 87 % of control | [15] 87 % of control

N#CCc1[nH]nc(N)c1C#N
inactive: [9] 95 % of control | [10] 89 % of control | [11] 102 % of control | [12] 93 % of control | [13] 96 % of control | [14] 91 % of control

Cc1cc2nc(-c3cc4cc(Cl)cc(Cl)c4oc3=O)[nH]c2cc1C
inactive: [2] 108 % of control | [3] 104 % of control | [4] 115 % of control

CC(=O)OCC1OC(OC(C)=O)C(OC(C)=O)C1OC(C)=O (stereo not drawn)
inactive: [6] 107 % of control | [7] 106 % of control | [8] 102 % of control

C/C(CCC(=O)O)=N/O
inactive: dose: 100.0 mg/kg/injection, schedule: Q01DX009 (ip), vehicle: saline 101 % of control | dose: 100.0 mg/kg/injection, schedule: Q04DX003 (ip), vehicle: saline 95 % of control | dose: 200.0 mg/kg/injection, schedule: Q01DX009 (ip), vehicle: saline 97 % of control | dose: 200.0 mg/kg/injection, schedule: Q04DX003 (ip), vehicle: saline 100 % of control | dose: 400.0 mg/kg/injection, schedule: Q01DX009 (ip), vehicle: saline 105 % of control | dose: 400.0 mg/kg/injection, schedule: Q04DX003 (ip), vehicle: saline 101 % of control

C1=Nc2ccccc2/C1=C/C=C/c1ccccc1
inactive: dose: 100.0 mg/kg/injection, schedule: Q04DX002 (ip), vehicle: gum acacia 88 % of control | dose: 200.0 mg/kg/injection, schedule: Q04DX002 (ip), vehicle: gum acacia 95 % of control | dose: 400.0 mg/kg/injection, schedule: Q04DX002 (ip), vehicle: gum acacia 95 % of control

CC1(C)CN1CC1CO1 (stereo not drawn)
inactive: dose: 3.0 mg/kg/injection, schedule: Q01DX Z (ip), vehicle: saline 120 % of control | [1] 120 % of control | dose: 7.0 mg/kg/injection, schedule: Q01DX Z (ip), vehicle: saline 114 % of control and 118 % of control and 124 % of control | dose: 11.0 mg/kg/injection, schedule: Q01DX Z (ip), vehicle: saline 109 % of control
